Laboratory results: patent publication US9526680B2, “Method for searching for malodor control agent, malodor control agent, and malodor control method” (Kao Corporation, priority 2010, dated 2016)

How the values were obtained:
[1] = Sensory evaluation test of hexanoic acid odor inhibition; assay type: in vivo; details: for Intensity of odor: hexanoic acid odor, malodor alone rated as 5, 0 to 10 points, test substance diluted 100 times with propylene glycol, three panelists; for Inhibition of hexanoic acid odor (in words): sensory test, test substance diluted 100 times with propylene glycol (FIG. 5, Table 4)
Method: (§1) Cotton balls were introduced into a glass bottle (Hakuyo Glass Co., Ltd. No. 11, capacity 110 ml), and hexanoic acid diluted 100 times with propylene glycol, nonanoic acid diluted 10 times with propylene glycol, or isovaleric acid diluted 1000 times with propylene glycol, as a malodor, and a test substance were added dropwise in an amount of […] to the cotton balls. The glass bottle was left to stand overnight at room temperature, and the odor molecules were sufficiently volatilized in the glass bottle. A sensory evaluation test was carried out by a panel of three panelists (5 panelists for isovaleric acid), and while the intensity of odor in the case of adding dropwise the malodor alone was rated as 5, the intensity of the malodor in the case of incorporating a test substance was evaluated on the basis of a system of 20 grades from 0 point to 10 points (0.5 points per grade).
Regarding the test substance, florhydral (Givaudan SA), bourgeonal (Givaudan SA), hydroxycitronellal (Givaudan SA, International Flavors & Fragrances, Inc., and the like), 4-isopropylcyclohexanecarbaldehyde (synthesized according to a method described in JP-A-2-188549), 4-(2-methoxyphenyl)-2-methyl-2-butanol (JP-A-9-111281), florosa (Givaudan SA), isocyclocitral (Givaudan SA, International Flavors & Fragrances, Inc., and the like), tripral (International Flavors & Fragrances, Inc.), and Pollenal II (Kao Corp.), which had been diluted 100 times with propylene glycol, were used for hexanoic acid; florhydral that had been diluted 10 times with propylene glycol was used for nonanoic acid; and florhydral that had been diluted 1000 times with propylene glycol was used for isovaleric acid.

[2] = Sensory evaluation test of nonanoic acid odor inhibition; assay type: in vivo; details: test substance diluted 10 times with propylene glycol (FIG. 6)
Method: as §1, with “grade). […]” for “grade).”

OR51I2 = molecular target: T1, OR51I2 (Homo sapiens, UniProt Q9H344); assay: Luciferase reporter gene assay, OR51I2 expressed in HEK293 cells; assay type: cell-based
T1 construct: expressed in transfected cells; host or cells: HEK293
T1 sequence (Q9H344 1-312): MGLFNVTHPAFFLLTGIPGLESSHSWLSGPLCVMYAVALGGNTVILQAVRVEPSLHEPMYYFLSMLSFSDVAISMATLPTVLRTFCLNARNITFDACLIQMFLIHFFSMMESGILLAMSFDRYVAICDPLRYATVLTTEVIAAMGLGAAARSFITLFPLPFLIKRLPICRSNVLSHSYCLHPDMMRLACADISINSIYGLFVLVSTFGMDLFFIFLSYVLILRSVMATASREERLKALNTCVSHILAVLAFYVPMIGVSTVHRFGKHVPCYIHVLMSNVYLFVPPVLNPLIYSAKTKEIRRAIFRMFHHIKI
Method: Cloning of human olfactory receptors was performed based on the sequence information registered in GenBank, through PCR with human genomic DNA female (G1521: Promega) as a template. Each of the genes amplified through PCR was inserted into a pENTR vector (Invitrogen) according to an instruction manual. Then, the gene-inserted vector was digested with NotI and AscI, and the obtained fragments were inserted into NotI and AscI sites located downstream of the Flag-Rho tag sequence in the pME18S vector.
Each of the 350 types of human olfactory receptors was expressed in HEK293 cells. A reaction solution having a composition shown in Table 2 was prepared on a clean bench, and left to stand for 15 minutes. The solution was dispensed to each well of a 96-well plate (BD). Subsequently, […] cells (100 μL, 3×10^5 cells/cm^2) were seeded in each well and cultured for 24 hours in an incubator at 37° C. and under 5% CO2 conditions.
The olfactory receptor expressed in HEK293 cell was conjugated with cell-intrinsic Gas to activate adenylate cyclase, and thereby the level of intracellular cAMP was increased. For the measurement of the response to odor in this study, the luciferase reporter gene assay was used, in which an increase in the amount of intracellular cAMP was monitored by using the emission value originating from firefly luciferase gene (fluc2P-CRE-hygro) as an indicator. Furthermore, a gene product obtained by fusing renilla luciferase gene in the downstream of CMV promoter (hRluc-CMV) was simultaneously introduced, and this was used as an internal standard for correcting an error in the transgenesis efficiency or the number of cells. The medium was removed from the culture prepared in the above-described section 3) by using a Pipetman, and 75 μl of a solution containing an odor substance (1 mM hexanoic acid or 300 μM nonanoic acid) prepared in CD293 medium (Invitrogen) was added thereto. The cells were cultured for 4 hours in a CO2 incubator, and the luciferase gene was sufficiently expressed in the cells. For the measurement of luciferase activity, the measurement was carried out by using a Dual-Glo™ luciferase assay system (Promega) according to the operation manual of the product. A value calculated by dividing the emission value, derived from a firefly luciferase induced by the stimulation with an odor substance, by the emission value in cells that were not-stimulated with an odor substance, was designated as a fold increase, and used as an index of response intensity.
OR2W1, OR10A6, OR51E1, OR51I2, and OR51L1 were respectively expressed in HEK293 cells by the same method as that used in Example 1, and a luciferase assay was carried out. In the luciferase assay, hexanoic acid was used as the odorous substance, and test substances were added together with hexanoic acid. The response of the olfactory receptors to hexanoic acid was measured, and a decrease in the receptor response to the addition of test substances was evaluated.
The inhibition ratios of the receptor response to test substances were calculated as follows. The emission value (Y) obtained from the cells in which the same receptors were introduced but no odor stimulation was conducted, was subtracted from the emission value derived from firefly luciferase (X) induced by odor stimulation with hexanoic acid alone. Similarly, the emission value (Y) obtained from the cells in which no odor stimulation was conducted, was subtracted from the emission value (Z) caused by stimulation with a mixture of hexanoic acid and a test substance. By the following calculation formula, the inhibitory activity of the test substance to receptor response was calculated based on the increment of the emission value (X−Y) caused by stimulation of hexanoic acid alone. Multiple independent experiments were performed in duplicate, and the average of each experiment was obtained. Inhibition ratio (%)={1−(Z−Y)/(X−Y)}×100 […]

[3] = Sensory evaluation test of isovaleric acid odor inhibition; assay type: in vivo; details: test substance diluted 1000 times with propylene glycol, 5 panelists (FIG. 7)
Method: as §1, with “grade). […]” for “grade).”

| Molecule | Intensity of odor [1] | Inhibition of hexanoic acid odor (in words) [1] | Inhibition of nonanoic acid odor (in words) [2] | Inhibition of OR51I2 response to hexanoic acid (in words) (OR51I2; 1 mM hexanoic acid, test substance 3, 10, 30, 100, 300 μM (FIG. 4)) | Inhibition ratio of OR51I2 response (OR51I2; response to hexanoic acid, test substance added together with hexanoic acid, HEK293) | Inhibition of isovaleric acid odor (in words) [3] |
| --- | --- | --- | --- | --- | --- | --- |
| 2,4,6-trimethyl-3-cyclohexene-1-carboxyaldehyde, 3,5,6-trimethyl-3-cyclohexene-1-carboxyaldehyde [Isocyclocitral] | 0.67 | inhibit the hexanoic acid odor |  |  |  |  |
| CC(C)c1cccc(C(C)CC=O)c1 (centres unmarked) [Florhydral, 3-(3-isopropylphenyl)-butyraldehyde] | 1.25 | markedly inhibited | the odors were also inhibited | in a concentration-dependent manner | 1 (Inhibition ratio: 50% or higher) | the odors were also inhibited |
